Results taken from patent US20060287252A1, “Substances k01-0509 and process for producing the same” (priority 2004, published 2006).

Legend:
Format in all cases: cell-based
[1] = system: enteropathogenic E. coli E2348/69 (wild strain)
[2] = system: Bacillus subtilis ATCC 6633; experiment: Antibiotic activity by paper disc method; settings: 10 μg/disc, paper disc 6 mm, nutrient agar, 24 hours cultivation
[3] = system: Micrococcus luteus ATCC 9341; experiment: Antibiotic activity by paper disc method; settings: 10 μg/disc, paper disc 6 mm, nutrient agar, 24 hours cultivation
[4] = system: E. coli NIHJ; experiment: Antibiotic activity by paper disc method; settings: 10 μg/disc, paper disc 6 mm, nutrient agar, 24 hours cultivation
[5] = system: Xanthomonas campestris pv. oryzae KB88

Measured: inhibition zone

CC(NC(=O)C1NC(C)C(=O)NC1CCC(O)C(O)CC1CNC(=N)N1C(N)=O)C(=O)NC(C(=O)O)C(C)C (stereo not shown) [K01-0509-A1 substance]
no inhibition zone: all assays above

CC(NC(=O)C1NC(C)C(=O)NC1CCC(O)C(O)CC1CNC(=N)N1C(N)=O)C(=O)NC(C(=O)O)C(C)C (stereo not shown) [K01-0509-A2 substance]
no inhibition zone: [1] | [5]
